In patent US20030203819A1, “Synergistically acting herbicidal mixtures” (priority 1998, published 2003):
Like-named read-outs stand apart in the source and are kept apart here.

Columns and labels:
Format in all cases: in vivo
Phalaris spec. = assay: Herbicidal action in the field (post-emergence treatment); conditions: 2,4-D 500 g/ha a.s.
Excerpt: (§1) The mixtures according to the invention were applied pre- or post-emergence (foliar treatment). The herbicidal compounds of component B were applied in the formulation in which they are present as commercially available product.
(§2) Some of the experiments were greenhouse experiments and some were field trials on mini plots (on a site with sandy loam (pH 6.2 to 7.0) or sandy clay (pH 5.0 to 6.7) as the soil).
(§3) The harmful plants differed with regard to size and developmental state; on average, they were 5 to 20 cm long, depending on the growth habit.
(§4) The herbicidally active compounds of components A) and B) were applied in succession or jointly, in the latter case in some cases as a tank mix and in some cases as a readymix, in the form of emulsions, aqueous solutions or suspensions, the vehicle being water ([…]). In the case of the field trials, application was effected with the aid of a mobile plot sprayer.
(§5) The test period extended over 3 to 8 weeks, and the stands were also observed at later points in time.
(§6) Damage by the herbicidal compositions was evaluated with reference to a scale of 0% to 100% in comparison with untreated control plots. 0 means no damage and 100 means complete destruction of the plants.
(§7) In these examples, the value E at which only an additive effect of the individual active ingredients is to be expected was calculated by the method of S. R. Colby (Calculating synergistic and antagonistic responses of herbicide combinations, Weeds 15, 20 pp (1967).

Amaranthus retroflexus [1] = assay: Herbicidal action in the greenhouse (post-emergence treatment)
Excerpt: as §1, §2, §3, §4, §5, §6, §7

Abutilon theophrasti [2] = assay: as above
Excerpt: as §1, §2, §3, §4, §5, §6, §7

Richardia brasiliensis = assay: Herbicidal action in the field (post-emergence treatment); conditions: Bentazone 1440 g/ha a.s.
Excerpt: as §1, §2, §3, §4, §5, §6, §7

Chenopodium album = assay: as above; conditions: Cycloxydim 100 g/ha a.s.
Excerpt: as §1, §2, §3, §4, §5, §6, §7

Digitaria sanguinalis [3] = assay: as above; conditions: Cycloxydim 100 g/ha a.s.
Excerpt: as §1, §2, §3, §4, §5, §6, §7

Cyperus iria [4] = assay: Herbicidal action in the greenhouse (pre-emergence treatment); conditions: Dimethenamid 62.5 g/ha a.s.
Excerpt: as §1, §2, §3, §4, §5, §6, §7

Digitaria sanguinalis [5] = assay: as above
Excerpt: as §1, §2, §3, §4, §5, §6, §7

Amaranthus retroflexus [6] = assay: as above; conditions: Dimethenamid 125 g/ha a.s.
Excerpt: as §1, §2, §3, §4, §5, §6, §7

Panicum miliaceum = assay: Herbicidal action in the field (post-emergence treatment)
Excerpt: as §1, §2, §3, §4, §5, §6, §7

Sorghum halepense = assay: as above; conditions: for Damage (%): Sorghum halepense, field, post-emergence, Ia.33 75 g/ha a.s.
Excerpt: as §1, §2, §3, §4, §5, §6, §7

Veronica ssp. = assay: Herbicidal action in the greenhouse (post-emergence treatment)
Excerpt: as §1, §2, §3, §4, §5, §6, §7

Triticum aestivum = assay: Phytotoxicity to crop plant in the greenhouse (post-emergence treatment)
Excerpt: as §1, §2, §4, §5, §6, §7

Zea mays = assay: as above
Excerpt: as §1, §2, §4, §5, §6, §7

Galium aparine = assay: Herbicidal action in the field (post-emergence treatment); conditions: Ia.33 1.9 g/ha a.s.
Excerpt: as §1, §2, §3, §4, §5, §6, §7

Setaria faberi [7] = assay: as above; conditions: Ia.33 75 g/ha a.s.
Excerpt: as §1, §2, §3, §4, §5, §6, §7

Sorghum bicolor = assay: as above
Excerpt: as §1, §2, §3, §4, §5, §6, §7

Ipomoea lacunosa = assay: as above
Excerpt: as §1, §2, §3, §4, §5, §6, §7

Ipomoea ssp. = assay: Herbicidal action in the greenhouse (post-emergence treatment)
Excerpt: as §1, §2, §3, §4, §5, §6, §7

Setaria faberi [8] = assay: as above
Excerpt: as §1, §2, §3, §4, §5, §6, §7

Echinochloa crus-galli [9] = assay: as above
Excerpt: as §1, §2, §3, §4, §5, §6, §7

Alopecurus myosuroides = assay: as above
Excerpt: as §1, §2, §3, §4, §5, §6, §7

Setaria viridis [10] = assay: Herbicidal action in the greenhouse (pre-emergence treatment); conditions: S-Metolachlor 62.5 g/ha a.s.
Excerpt: as §1, §2, §3, §4, §5, §6, §7

Echinochloa crus-galli [11] = assay: as above; conditions: S-Metolachlor 62.5 g/ha a.s.
Excerpt: as §1, §2, §3, §4, §5, §6, §7

Setaria viridis [12] = assay: Herbicidal action in the field (post-emergence treatment); conditions: Sethoxydim 160 g/ha a.s.
Excerpt: as §1, §2, §3, §4, §5, §6, §7

Abutilon theophrasti [13] = assay: as above; conditions: Sethoxydim 160 g/ha a.s.
Excerpt: as §1, §2, §3, §4, §5, §6, §7

Cyperus iria [14] = assay: as above; conditions: benthiocarb 3000 g/ha a.s.
Excerpt: as §1, §2, §3, §4, §5, §6, §7

Anthemis mixta = assay: as above; conditions: carfentrazone-ethyl 30 g/ha a.s.
Excerpt: as §1, §2, §3, §4, §5, §6, §7

Amaranthus retroflexus [15] = assay: as above; conditions: dicamba 280 g/ha a.s.
Excerpt: as §1, §2, §3, §4, §5, §6, §7

Digitaria adscendens = assay: as above; conditions: glufosinate-ammonium 400 g/ha a.s.
Excerpt: as §1, §2, §3, §4, §5, §6, §7

Ipomoea acuminata = assay: as above; conditions: glufosinate-ammonium 400 g/ha a.s.
Excerpt: as §1, §2, §3, §4, §5, §6, §7

Geranium carolinianum = assay: as above; conditions: glyphosate 840 g/ha a.s.
Excerpt: as §1, §2, §3, §4, §5, §6, §7

Setaria viridis [16] = assay: Herbicidal action in the greenhouse (post-emergence treatment); conditions: isoxaflutole 31.2 g/ha a.s.
Excerpt: as §1, §2, §3, §4, §5, §6, §7

Lolium perenne = assay: Herbicidal action in the field (post-emergence treatment); conditions: paraquat-dichloride 400 g/ha a.s.
Excerpt: as §1, §2, §3, §4, §5, §6, §7

Brachiaria plantaginea = assay: as above; conditions: pendimethalin 990 g/ha a.s.
Excerpt: as §1, §2, §3, §4, §5, §6, §7

SMILES: O=C(O)COc1ccc(Cl)cc1Cl [2,4-D, reference compound]
- Damage (Phalaris spec.): 20%
- Damage (Amaranthus retroflexus [1]; 2,4-D 62.5 g/ha a.s.): 20%
- Damage (Abutilon theophrasti [2]; 2,4-D 62.5 g/ha a.s.): 40%

SMILES: CC(C)N1C(=O)c2ccccc2NS1(=O)=O [Bentazone, bentazone, reference compound]
- Damage (Richardia brasiliensis): 77%

SMILES: CCCC(=NOCC)C1=C(O)CC(C2CCCSC2)CC1=O (stereo not drawn) [Cycloxydim, cycloxydim, reference compound]
- Damage (Chenopodium album): 0%
- Damage (Digitaria sanguinalis [3]): 81%

SMILES: COCC(C)N(C(=O)CCl)c1c(C)csc1C (stereo not drawn) [Dimethenamid, dimethenamid, reference compound]
- Damage (Cyperus iria [4]): 95%
- Damage (Digitaria sanguinalis [5]; Dimethenamid 125 g/ha a.s.): 80%
- Damage (Amaranthus retroflexus [6]): 80%
- Damage (Panicum miliaceum; dimethenamid 841 g/ha a.s.): 23%
- Damage (Sorghum halepense; dimethenamid 1120 g/ha a.s.): 7%
- Damage (Veronica ssp.; Dimethenamid 500 g/ha a.s. (Table 43)): 70%
- Damage (Veronica ssp.; Dimethenamid 500 g/ha a.s. (Table 45)): 70%
- pest or weed control at 500 g/ha (Amaranthus retroflexus [1]; Amaranthus retroflexus, post-emergence, Dimethenamnid 500 g/ha a.s., read-out: Damage): 10%

SMILES: COCC(C)N(C(=O)CCl)c1c(C)csc1C (stereo not drawn) [Dimethenamide]
- Phytotoxicity (%) (Triticum aestivum; Table 83, Dimethenamide 500 g/ha a.s.): 0%

SMILES: Cc1c(C(=O)c2cnn(C)c2O)ccc(S(C)(=O)=O)c1C1=NOCC1 [Ia.33, 4-[2-methyl-3-(4,5-dihydroisoxazol-3-yl)-4-methylsulfonylbenzoyl]-1-methyl-5-hydroxy-1H-pyrazole]
- Phytotoxicity (%) (Zea mays; Table 84, Ia.33 62.5 g/ha a.s.): 0%
- Damage (Galium aparine): 20%
- Damage (Setaria faberi [7]): 65%
- Damage (%) (Setaria faberi [7]; Table 82, Setaria faberi, field, post-emergence): 65%
- Damage (Panicum miliaceum; Ia.33 50 g/ha a.s.): 87%
- Damage (Sorghum halepense; Ia.33 75 g/ha a.s. (Table 32)): 78%
- Damage (Sorghum halepense; Ia.33 75 g/ha a.s. (Table 42)): 78%
- Damage (%) (Sorghum halepense; Table 78): 78%
- Damage (%) (Sorghum halepense; Table 79): 78%
- Damage (Sorghum bicolor; Ia.33 75 g/ha a.s. (Table 73)): 78%
- Damage (Ipomoea lacunosa; Ia.33 75 g/ha a.s.): 69%
- Damage (%) (Ipomoea lacunosa; Table 81, Ipomoea lacunosa, field, post-emergence, Ia.33 75 g/ha a.s.): 69%
- Damage (Ipomoea ssp.; Ia.33 3.9 g/ha a.s.): 50%
- Damage (Ipomoea ssp.; Ia.33 62.5 g/ha a.s.): 80%
- Damage (Setaria faberi [8]; Ia.33 7.8 g/ha a.s.): 90%
- Damage (Echinochloa crus-galli [9]; Ia.33 1.9 g/ha a.s.): 55%
- Damage (Echinochloa crus-galli [9]; Ia.33 15.6 g/ha a.s.): 90%
- Damage (Veronica ssp.; Ia.33 15.6 g/ha a.s.): 60%
- Damage (Veronica ssp.; Ia.33 62.5 g/ha a.s. (Table 18)): 20%
- Damage (Veronica ssp.; Ia.33 62.5 g/ha a.s. (Table 51)): 80%
- pest or weed control at 1.9 g/ha (Amaranthus retroflexus [1]; Amaranthus retroflexus, post-emergence, read-out: Damage, Ia.33 1.9 g/ha a.s.): 30%
- pest or weed control at 7.8 g/ha (Amaranthus retroflexus [1]; Amaranthus retroflexus, post-emergence, read-out: Damage, Ia.33 7.8 g/ha a.s.): 70%
- Damage (Alopecurus myosuroides; Ia.33 15.6 g/ha a.s.): 40%
- Damage (Alopecurus myosuroides; Ia.33 62.5 g/ha a.s. (Table 19)): 40%
- Damage (Alopecurus myosuroides; Ia.33 62.5 g/ha a.s. (Table 62)): 40%
- Damage (Abutilon theophrasti [2]; Ia.33 7.8 g/ha a.s.): 90%

SMILES: Cc1cc(-c2c(S(C)(=O)=O)ccc(C(=O)c3cnn(C)c3O)c2Cl)on1 [Ia.52, 4-[2-chloro-3-(3-methyl-isoxazol-5-yl)-4-methylsulfonylbenzoyl]-1-methyl-5-hydroxy-1H-pyrazole]
- Phytotoxicity (%) (Triticum aestivum; Table 83, Ia.52 62.5 g/ha a.s.): 0%
- Damage (Veronica ssp.; Ia.52 15.6 g/ha a.s.): 40%
- pest or weed control at 62.5 g/ha (Amaranthus retroflexus [1]; Amaranthus retroflexus, post-emergence, read-out: Damage, Ia.52 62.5 g/ha a.s.): 75%

SMILES: CCc1cccc(C)c1N(C(=O)CCl)[C@@H](C)COC [S-Metolachlor, S-metolachlor, reference compound]
- Damage (Setaria viridis [10]): 70%
- Damage (Echinochloa crus-galli [11]): 65%
- Damage (Digitaria sanguinalis [5]; S-Metolachor 125 g/ha a.s.): 50%
- Phytotoxicity (%) (Zea mays; Table 84, S-Metolachlor 125 g/ha a.s.): 0%
- Damage (Ipomoea ssp.; S-Metolachlor 62.5 g/ha a.s.): 0%
- Damage (Veronica ssp.; S-Metolachlor 125 g/ha a.s.): 0%

SMILES: CCC/C(=N\OCC)C1=C(O)CC(CC(C)SCC)CC1=O (stereo not drawn) [Sethoxydim, sethoxydim, reference compound]
- Damage (Setaria viridis [12]): 93%
- Damage (Abutilon theophrasti [13]): 0%

SMILES: CCN(CC)C(=O)SCc1ccc(Cl)cc1 [benthiocarb]
- Damage (Cyperus iria [14]): 50%

SMILES: CCOC(=O)C(Cl)Cc1cc(-n2nc(C)n(C(F)F)c2=O)c(F)cc1Cl (stereo not drawn) [carfentrazone-ethyl, reference compound]
- Damage (Anthemis mixta): 0%
- pest or weed control at 0.9 g/ha (Amaranthus retroflexus [1]; Amaranthus retroflexus, post-emergence, read-out: Damage, carfentrazone-ethyl 0.9 g/ha a.s.): 60%

SMILES: COc1c(Cl)ccc(Cl)c1C(=O)O [dicamba, reference compound]
- Damage (Amaranthus retroflexus [15]): 25%
- Damage (Sorghum bicolor; dicamba 560 g/ha a.s.): 17%

SMILES: CP(=O)(O)CCC(N)C(=O)O (stereo not drawn) [glufosinate-ammonium, reference compound]
- Damage (Digitaria adscendens): 75%
- Damage (Ipomoea acuminata): 75%
- Damage (Setaria faberi [8]; glufosinate-ammonium 31.2 g/ha a.s.): 65%
- Damage (Echinochloa crus-galli [9]; glufosinate-ammonium 15.6 g/ha a.s.): 0%

SMILES: O=C(O)CNCP(=O)(O)O [glyphosate, reference compound]
- Damage (Geranium carolinianum): 97%
- Damage (Sorghum halepense; glyphosate 840 g/ha a.s.): 74%

SMILES: CS(=O)(=O)c1cc(C(F)(F)F)ccc1C(=O)c1cnoc1C1CC1 [isoxaflutole, reference compound]
- Damage (Ipomoea ssp.; isoxaflutole 62.5 g/ha a.s.): 55%
- Damage (Setaria viridis [16]): 30%

SMILES: COc1cc(OC)nc(NC(=O)NS(=O)(=O)c2ncccc2C(=O)N(C)C)n1 [nicosulfuron, reference compound]
- Damage (Ipomoea lacunosa; nicosulfuron 35 g/ha a.s.): 39%
- pest or weed control at 1.9 g/ha (Amaranthus retroflexus [1]; Amaranthus retroflexus, post-emergence, nicosulfuron 1.9 g/ha a.s., read-out: Damage): 65%

SMILES: C[n+]1ccc(-c2cc[n+](C)cc2)cc1 [paraquat-dichloride, reference compound]
- Damage (Lolium perenne): 97%

SMILES: CCC(CC)Nc1c([N+](=O)[O-])cc(C)c(C)c1[N+](=O)[O-] [pendimethalin, reference compound]
- Damage (Brachiaria plantaginea): 0%
